Results from PubChem BioAssay (NCI).
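Five concentrations, 48 hours, 96-well plates. At the GI50, growth is halved. TGI: total growth inhibition.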

How the values were obtained:
Assay in all cases: NCI anticancer screen, dose series, 48 h
HL-60(TB) leukemia = test system: HL-60(TB) leukemia
CCRF-CEM leukemia = test system: CCRF-CEM leukemia
SK-MEL-5 melanoma = test system: SK-MEL-5 melanoma
HCT-15 colon = test system: HCT-15 colon
A498 renal = test system: A498 renal
NCI-H460 lung = test system: NCI-H460 lung
A549 NSCLC = test system: A549 NSCLC
SF-539 CNS = test system: SF-539 CNS
SNB-19 CNS = test system: SNB-19 CNS
UO-31 renal = test system: UO-31 renal

Row | SMILES | GI50 (HL-60(TB) leukemia) | TGI (HL-60(TB) leukemia) | GI50 (CCRF-CEM leukemia) | TGI (CCRF-CEM leukemia) | GI50 (SK-MEL-5 melanoma) | TGI (SK-MEL-5 melanoma) | GI50 (HCT-15 colon) | TGI (HCT-15 colon) | GI50 (A498 renal) | TGI (A498 renal) | GI50 (NCI-H460 lung) | TGI (NCI-H460 lung) | GI50 (A549 NSCLC) | TGI (A549 NSCLC) | GI50 (SF-539 CNS) | TGI (SF-539 CNS) | GI50 (SNB-19 CNS) | TGI (SNB-19 CNS) | GI50 (UO-31 renal) | TGI (UO-31 renal)
1 | COc1cc2c3c(n(CCCNCCCNCCN)c(=O)c2cc1OC)-c1cc2c(cc1C3=O)OCO2 | 46.9 µM | > 100 µM | 10.1 µM | 32.2 µM | 35.7 µM | > 100 µM | > 100 µM | > 100 µM | > 100 µM | > 100 µM | > 100 µM | > 100 µM | > 100 µM | > 100 µM | 37.9 µM | > 100 µM | 53.9 µM | > 100 µM | > 100 µM | > 100 µM
2 | COc1ccc(C(=O)c2cc3c(N)c(C(=O)Nc4cccc(Br)c4C)sc3nc2C)cc1 | 0.0282 µM | 0.0954 µM | 0.0409 µM | > 100 µM | 0.193 µM | 1.81 µM | 0.0489 µM | > 100 µM | 0.0238 µM | 0.26 µM | 0.0962 µM | – | 0.132 µM | > 100 µM | 0.0256 µM | 0.0809 µM | 0.0541 µM | > 100 µM | 0.219 µM | > 100 µM
3 | C#CC1(O)C(COP(=O)(O)OCC2OC(n3cc(F)c(=O)[nH]c3=O)CC2O)OC(n2ccc(N)nc2=O)C1O (stereo not given) | < 0.011 µM | – | < 0.01 µM | – | < 0.01 µM | 0.0412 µM | < 0.0166 µM | > 100 µM | < 0.0134 µM | 0.199 µM | < 0.01 µM | > 21.5 µM | < 0.01 µM | > 100 µM | < 0.01 µM | 0.527 µM | – | > 100 µM | < 0.01 µM | > 100 µM
4 | COc1cc(-c2nc3ccccc3o2)cc(CN2CCCCC2)c1O | 4.77 µM | 36.9 µM | 4.06 µM | > 100 µM | 1.09 µM | 2.3 µM | 1.05 µM | 26 µM | 10 µM | 24.5 µM | 2.84 µM | 10.9 µM | 1.63 µM | 4.12 µM | 2.93 µM | 7.68 µM | 5.44 µM | 26.9 µM | 1.92 µM | 21.8 µM
5 | CC(=O)/C(Br)=C/c1ccc(Br)o1 | 2.53 µM | 8.58 µM | 2.04 µM | 5.85 µM | 10.3 µM | 22.6 µM | 4.2 µM | 16.1 µM | 17.4 µM | 33.7 µM | 14.2 µM | 30.9 µM | 26.8 µM | 86.4 µM | 5 µM | 10.8 µM | 26 µM | > 59.6 µM | 10.2 µM | 29.1 µM
6 | Oc1[nH]c2ccccc2c1/C=c1/ccc2c(c1)N=C(c1ccc(C(F)(F)F)cc1)N=2 | 2.26 µM | 5.27 µM | 1.65 µM | 5.05 µM | 8.72 µM | 20.9 µM | 4.09 µM | 20.3 µM | 1.54 µM | 11.2 µM | 2.13 µM | 6.12 µM | 4.81 µM | 17.8 µM | 7.45 µM | 21.1 µM | 5.38 µM | 21.1 µM | 2.48 µM | 13 µM
7 | O=C(CC1C(=O)Nc2ccccc2S1(=O)=O)Nc1ccc(Cl)cc1 (stereo not given) | – | 42.1 µM | – | 77.7 µM | – | 59.1 µM | – | > 100 µM | – | > 100 µM | – | > 100 µM | – | > 100 µM | – | 29.7 µM | – | 57.1 µM | – | 66.9 µM
8 | CCN(CC)c1ccc(-c2cc(-c3cc(OC)c(OC)c(OC)c3)nc(N3CCC(O)CC3)c2C#N)cc1 | 0.497 µM | 2.33 µM | 0.6 µM | > 100 µM | 0.156 µM | 0.365 µM | 0.26 µM | 1.93 µM | 1.07 µM | 14.2 µM | 0.245 µM | 1.62 µM | 0.326 µM | – | 0.554 µM | 2.47 µM | 1.72 µM | 7.42 µM | 0.274 µM | 1.82 µM
9 | O=C(/C=C/c1ccccn1)c1ccc(OCc2nnc(-c3ccc(Cl)cc3)o2)cc1 | 2.46 µM | 7.68 µM | 1.83 µM | 5.88 µM | 1.56 µM | 3.14 µM | 1.62 µM | 3.36 µM | 4.5 µM | 17.2 µM | 3.24 µM | 11.1 µM | 2.06 µM | 4.82 µM | 1.66 µM | 3.09 µM | 1.86 µM | 3.98 µM | 1.81 µM | 3.26 µM
10 | O=C1C=C2CCCC2C(C(=O)O)(C(=O)O)C1 (stereo not given) | – | > 100 µM | – | > 100 µM | – | > 100 µM | – | > 100 µM | – | > 100 µM | – | > 100 µM | – | > 100 µM | – | > 100 µM | – | > 100 µM | – | > 100 µM
11 | COc1cc([C@@H]2c3cc4c(cc3[C@@H](OC(=O)c3cccc(N)c3)C3COC(=O)[C@@H]32)OCO4)cc(OC)c1O (stereo not given in full) | – | > 41.2 µM | – | > 43 µM | – | 14 µM | – | > 52.6 µM | – | 16.6 µM | – | 20.4 µM | – | 25.9 µM | – | 13.8 µM | – | > 100 µM | – | 26.4 µM
12 | CCN(CC)CCN1c2nc3ccccc3cc2Sc2cc3ccccc3nc21 | 1.99 µM | 4.21 µM | 1.84 µM | 4.73 µM | 1.36 µM | 2.69 µM | 1.58 µM | 3.76 µM | 3.08 µM | 8.62 µM | 1.52 µM | 2.95 µM | 2.34 µM | 6.12 µM | 1.6 µM | 3.16 µM | 3.03 µM | 11.9 µM | 0.97 µM | 5.09 µM
13 | CCCc1nc(Cl)c(Cl)c(Cl)n1 | – | 37.2 µM | – | > 44.2 µM | – | > 100 µM | – | > 63.7 µM | – | > 100 µM | – | > 100 µM | – | > 100 µM | – | 68.6 µM | – | > 96.4 µM | – | 5.61 µM
14 | CCCCNC(=S)OCCC(C)CCCC(C)C (stereo not given) | – | > 100 µM | – | > 100 µM | – | > 100 µM | – | > 100 µM | – | > 100 µM | – | > 100 µM | – | > 100 µM | – | > 100 µM | – | > 100 µM | – | > 100 µM
15 | CCCCCCCCCCNCCSS(=O)(=O)O | 1.76 µM | 3.74 µM | 1.86 µM | 3.98 µM | 2.14 µM | 5.59 µM | 3.97 µM | 17 µM | 5.48 µM | 19.9 µM | 1.72 µM | 3.22 µM | 2.1 µM | 5.27 µM | 2.31 µM | 5.21 µM | 1.72 µM | 3.24 µM | 3.3 µM | 12.9 µM
